Data: US9499550B2 (BRISTOL-MYERS SQUIBB COMPANY, priority 2012, dated 2016)
pEC50: −log10 of the molar value.

Tests used:
[1] = test system: HCV genotype 1a (H77 strain) replicon in HUH-7 cells; test: HCV replicon luciferase reporter assay, genotype 1a; type: cell-based; conditions: Hepatitis C virus, Huh-7, 72 h, HCV genotype 1a replicon luciferase, 3 days incubation, read-out: LE_1a (EC50, range)
Procedure, shortened: (§1)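 Replicon inhibition for both genotypes was measured as Renilla luciferase signal (EnduRen, 7.5 μM final, 2 h) after 3-day, 37° C exposure of replicon-bearing HUH-7 cells in 4% FCS DMEM, 0.5% DMSO. The 1b construct carries S1179I; the 1a H77 construct carries P1496L and S2204I. Twenty-point, 3-fold dilutions were fitted four-parametrically for EC50, and CC50 was taken from multiplexed Cell Titer-Blue.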

[2] = test system: HCV genotype 1b (Con1) replicon in HUH-7 cells; test: HCV replicon luciferase reporter assay, genotype 1b; type: cell-based; conditions: Hepatitis C virus, Huh-7, 72 h, HCV genotype 1b replicon luciferase, 3 days incubation, read-out: LE_1b (EC50, range)
Procedure, shortened: as §1

| Structure (SMILES) | pEC50 [1] | pEC50 [2] |
| --- | --- | --- |
| COc1cnc(O[C@@H]2C[C@H]3C(=O)N[C@]4(C(=O)NS(=O)(=O)C5(CF)CC5)C[C@H]4CCCC[C@@H](C)C[C@@H](C)[C@H](NC(=O)OC(C)(C)C(F)(F)F)C(=O)N3C2)c2ccccc12 [Compound 5117, 1,1,1-trifluoro-2-methylpropan-2-yl((2R,6S,7R,9R,13aR,14aR,16aS)-14a-(((1-(fluoromethyl)cyclopropyl)sulfonyl)carbamoyl)-2-((4-methoxyisoquinolin-1-yl)oxy)-7,9-dimethyl-5,16-dioxooctadecahydrocyclopropa[e]pyrrolo[1,2-a][1,4]diazacyclopentadecin-6-yl)carbamate] | > 8.26 | > 8.26 |
| COc1cnc(O[C@@H]2C[C@H]3C(=O)N[C@]4(C(=O)NS(=O)(=O)C5(CF)CC5)C[C@H]4CCCC[C@H](C)C[C@@H](C)[C@H](NC(=O)OC(C)(C)C(C)(F)F)C(=O)N3C2)c2ccccc12 [Compound 5118, 3,3-difluoro-2-methylbutan-2-yl ((2R,6S,7R,9S,13 aR,14aR,16aS)-14a-(((1-(fluoromethyl)cyclopropyl)sulfonyl)carbamoyl)-2-((4-methoxyisoquinolin-1-yl)oxy)-7,9-dimethyl-5,16-dioxooctadecahydrocyclopropa[e]pyrrolo[1,2-a][1,4]diazacyclopentadecin-6-yl)carbamate] | 6.99 to 8.32 | 6.99 to 8.32 |
| COc1cnc(O[C@@H]2C[C@H]3C(=O)N[C@]4(C(=O)NS(=O)(=O)C5(CF)CC5)C[C@H]4CCCC[C@@H](C)C[C@@H](C)[C@H](NC(=O)OC(C)(C)C(C)(F)F)C(=O)N3C2)c2ccccc12 [Compound 5119, 3,3-difluoro-2-methylbutan-2-yl ((2R,6S,7R,9R,13 aR,14aR,16aS)-14a-(((1-(fluoromethyl)cyclopropyl)sulfonyl)carbamoyl)-2-((4-methoxyisoquinolin-1-yl)oxy)-7,9-dimethyl-5,16-dioxooctadecahydrocyclopropa[e]pyrrolo[1,2-a][1,4]diazacyclopentadecin-6-yl)carbamate] | > 8.26 | > 8.26 |
| COc1cnc(O[C@@H]2C[C@H]3C(=O)N[C@]4(C(=O)NS(=O)(=O)C5(CF)CC5)C[C@H]4CCCC[C@@H](C)C[C@@H](C)[C@H](NC(=O)NC(C)(C)C)C(=O)N3C2)c2ccccc12 [Compound 5120, (2R,6S,7R,9R,13aR,14aR,16aS)-6-(3-(tert-butyl)ureido)-N-((1-(fluoromethyl)cyclopropyl)sulfonyl)-2-((4-methoxyisoquinolin-1-yl)oxy)-7,9-dimethyl-5,16-dioxooctadecahydrocyclopropa[e]pyrrolo[1,2-a][1,4]diazacyclopentadecine-14a-carboxamide] | > 8.26 | > 8.26 |
| C[C@@H]1CC/C=C\[C@@H]2C[C@@]2(C(=O)NS(=O)(=O)C2(C)CC2)NC(=O)[C@@H]2C[C@@H](Oc3nccc4c(N5CCOCC5)cccc34)CN2C(=O)[C@@H](NC(=O)OC(C)(C)C)[C@H](C)C1 [Compound 5122, tert-butyl ((2R,6S,7R,9R,13aS,14aR,16aS,Z)-7,9-dimethyl-14a-(((1-methylcyclopropyl)sulfonyl)carbamoyl)-2-((5-morpholinoisoquinolin-1-yl)oxy)-5,16-dioxo-1,2,3,5,6,7,8,9,10,11,13a,14,14a,15,16,16a-hexadecahydrocyclopropa[e]pyrrolo[1,2-a][1,4]diazacyclopentadecin-6-yl)carbamate] | > 8.26 | > 8.26 |
| CCOc1ccc2c(O[C@@H]3C[C@H]4C(=O)N[C@]5(C(=O)NS(=O)(=O)C6CC6)C[C@H]5/C=C\CC[C@H](C)C[C@@H](C)[C@H](NC(=O)OC(C)(C)C)C(=O)N4C3)nccc2c1 [Compound 5127, tert-butyl ((2R,6S,7R,9S,13aS,14aR,16aS,Z)-14a-((cyclopropylsulfonyl)carbamoyl)-2-((6-ethoxyisoquinoline-1-yl)oxy)-7,9-dimethyl-5,16-dioxo-1,2,3,5,6,7,8,9,10,11,13a,14,14a,15,16,16a-hexadecahydrocyclopropa[e]pyrrolo[1,2-a][1,4]diazacyclopentadecin-6-yl)carbamate] | > 8.26 | > 8.26 |
| CCOc1ccc2c(O[C@@H]3C[C@H]4C(=O)N[C@]5(C(=O)NS(=O)(=O)C6CC6)C[C@H]5/C=C\CC[C@@H](C)C[C@@H](C)[C@H](NC(=O)OC(C)(C)C)C(=O)N4C3)nccc2c1 [Compound 5128, tert-butyl ((2R,6S,7R,9R,13aS,14aR,16aS,Z)-14a-((cyclopropylsulfonyl)carbamoyl)-2-((6-ethoxyisoquinolin-1-yl)oxy)-7,9-dimethyl-5,16-dioxo-1,2,3,5,6,7,8,9,10,11,13a,14,14a,15,16,16a-hexadecahydrocyclopropa[e]pyrrolo[1,2-a][1,4]diazacyclopentadecin-6-yl)carbamate] | > 8.26 | > 8.26 |
| CCOc1ccc2c(O[C@@H]3C[C@H]4C(=O)N[C@]5(C(=O)NS(=O)(=O)C6(C)CC6)C[C@H]5/C=C\CC[C@H](C)C[C@@H](C)[C@H](NC(=O)OC(C)(C)C)C(=O)N4C3)nccc2c1 [Compound 5133, tert-butyl ((2R,6S,7R,9S,13aS,14aR,16aS,Z)-2-((6-ethoxyisoquinolin-1-yl)oxy)-7,9-dimethyl-14a-(((1-methylcyclopropyl)sulfonyl)carbamoyl)-5,16-dioxo-1,2,3,5,6,7,8,9,10,11,13a,14,14a,15,16,16a-hexadecahydrocyclopropa[e]pyrrolo[1,2-a][1,4]diazacyclopentadecin-6-yl)carbamate] | 6.99 to 8.32 | > 8.26 |
| CCOc1ccc2c(O[C@@H]3C[C@H]4C(=O)N[C@]5(C(=O)NS(=O)(=O)C6(C)CC6)C[C@H]5/C=C\CC[C@@H](C)C[C@@H](C)[C@H](NC(=O)OC(C)(C)C)C(=O)N4C3)nccc2c1 [Compound 5134, tert-butyl ((2R,6S,7R,9R,13aS,14aR,16aS,Z)-2-((6-ethoxyisoquinolin-1-yl)oxy)-7,9-dimethyl-14a-(((1-methylcyclopropyl)sulfonyl)carbamoyl)-5,16-dioxo-1,2,3,5,6,7,8,9,10,11,13a,14,14a,15,16,16a-hexadecahydrocyclopropa[e]pyrrolo[1,2-a][1,4]diazacyclopentadecin-6-yl)carbamate] | > 8.26 | > 8.26 |
| CCOc1ccc2c(O[C@@H]3C[C@H]4C(=O)N[C@]5(C(=O)NS(=O)(=O)C6(C)CC6)C[C@H]5/C=C\CC[C@H](C)C[C@@H](C)[C@H](NC(=O)OCC5(C)CC5)C(=O)N4C3)nccc2c1 [Compound 5139, (1-methylcyclopropyl)methyl ((2R,6S,7R,9S,13aS,14aR,16aS,Z)-2-((6-ethoxyisoquinolin-1-yl)oxy)-7,9-dimethyl-14a-(((1-methylcyclopropyl)sulfonyl)carbamoyl)-5,16-dioxo-1,2,3,5,6,7,8,9,10,11,13a,14,14a,15,16,16a-hexadecahydrocyclopropa[e]pyrrolo[1,2-a][1,4]diazacyclopentadecin-6-yl)carbamate] | 6.99 to 8.32 | > 8.26 |
| CCOc1ccc2c(O[C@@H]3C[C@H]4C(=O)N[C@]5(C(=O)NS(=O)(=O)C6(C)CC6)C[C@H]5/C=C\CC[C@@H](C)C[C@@H](C)[C@H](NC(=O)OCC5(C)CC5)C(=O)N4C3)nccc2c1 [Compound 5140, (1-methylcyclopropyl)methyl ((2R,6S,7R,9R,13aS,14aR,16aS,Z)-2-((6-ethoxyisoquinolin-1-yl)oxy)-7,9-dimethyl-14a-(((1-methylcyclopropyl)sulfonyl)carbamoyl)-5,16-dioxo-1,2,3,5,6,7,8,9,10,11,13a,14,14a,15,16,16a-hexadecahydrocyclopropa[e]pyrrolo[1,2-a][1,4]diazacyclopentadecin-6-yl)carbamate] | > 8.26 | > 8.26 |
| CCOc1ccc2c(O[C@@H]3C[C@H]4C(=O)N[C@]5(C(=O)NS(=O)(=O)C6(C)CC6)C[C@H]5/C=C\CC[C@H](C)C[C@@H](C)[C@H](NC(=O)O[C@H](C)C(F)(F)F)C(=O)N4C3)nccc2c1 [Compound 5141, (R)-1,1,1-trifluoropropan-2-yl ((2R,6S,7R,9S,13aS,14aR,16aS,Z)-2-((6-ethoxyisoquinolin-1-yl)oxy)-7,9-dimethyl-14a-(((1-methylcyclopropyl)sulfonyl)carbamoyl)-5,16-dioxo-1,2,3,5,6,7,8,9,10,11,13a,14,14a,15,16,16a-hexadecahydrocyclopropa[e]pyrrolo[1,2-a][1,4]diazacyclopentadecin-6-yl)carbamate] | 6.99 to 8.32 | > 8.26 |
| CCOc1ccc2c(O[C@@H]3C[C@H]4C(=O)N[C@]5(C(=O)NS(=O)(=O)C6(C)CC6)C[C@H]5/C=C\CC[C@@H](C)C[C@@H](C)[C@H](NC(=O)O[C@H](C)C(F)(F)F)C(=O)N4C3)nccc2c1 [Compound 5142, (R)-1,1,1-trifluoropropan-2-yl ((2R,6S,7R,9R,13aS,14aR,16aS,Z)-2-((6-ethoxyisoquinolin-1-yl)oxy)-7,9-dimethyl-14a-(((1-methylcyclopropyl)sulfonyl)carbamoyl)-5,16-dioxo-1,2,3,5,6,7,8,9,10,11,13a,14,14a,15,16,16a-hexadecahydrocyclopropa[e]pyrrolo[1,2-a][1,4]diazacyclopentadecin-6-yl)carbamate] | > 8.26 | > 8.26 |
| CCOc1ccc2c(O[C@@H]3C[C@H]4C(=O)N[C@]5(C(=O)NS(=O)(=O)C6(C)CC6)C[C@H]5/C=C\CC[C@H](C)C[C@@H](C)[C@H](NC(=O)NC(C)(C)C(F)(F)F)C(=O)N4C3)nccc2c1 [Compound 5143, (2R,6S,7R,9S,13aS,14aR,16aS,Z)-2-((6-ethoxyisoquinolin-1-yl)oxy)-7,9-dimethyl-N-((1-methylcyclopropyl)sulfonyl)-5,16-dioxo-6-(3-(1,1,1-trifluoro-2-methylpropan-2-yl)ureido)-1,2,3,5,6,7,8,9,10,11,13a,14,14a,15,16,16a-hexadecahydrocyclopropa[e]pyrrolo[1,2-a][1,4]diazacyclopentadecine-14a-carboxamide] | 6.99 to 8.32 | > 8.26 |
